Test results taken from ChEMBL document CHEMBL1157907, “Synthesis and anti-tumor activities of methyl 2-O-aryl-6-O-aryl'-D-glucopyranosides” (Bioorg Med Chem Lett, 2010).
Values belong to the compound of their own block, whether it stands above or below them.

What was measured:
[1] = system: MDA-MB-231; assay: Cytotoxicity against human MDA-MB-231 cells after 48 hrs by MTT assay; format: functional, cell-based; conditions: MDA-MB-231, 48 h
[2] = system: A549; assay: Cytotoxicity against human A549 cells after 48 hrs by MTT assay; format: functional, cell-based; conditions: A549, 48 h
[3] = system: HeLa; assay: Cytotoxicity against human HeLa cells after 48 hrs by MTT assay; format: functional, cell-based
[4] = system: MDA-MB-231; assay: Cytotoxicity against human MDA-MB-231 cells at 20 uM after 48 hrs by MTT assay; format: functional; conditions: MDA-MB-231, 48 h
[5] = system: MDA-MB-435; assay: Cytotoxicity against human MDA-MB-435 cells at 20 uM after 48 hrs by MTT assay; format: functional; conditions: MDA-MB-435, 48 h
[6] = system: MCF7; assay: Cytotoxicity against human MCF7 cells at 20 uM after 48 hrs by MTT assay; format: functional; conditions: MCF7, 48 h
[7] = system: MDA-MB-435; assay: Cytotoxicity against human MDA-MB-435 cells after 48 hrs by MTT assay; format: functional, cell-based; conditions: MDA-MB-435, 48 h
[8] = system: MCF7; assay: Cytotoxicity against human MCF7 cells after 48 hrs by MTT assay; format: functional, cell-based; conditions: MCF7, 48 h
[9] = system: MDA-MB-231; assay: Drug uptake in human MDA-MB-231 cells at 10 uM; format: ADME, cell-based; conditions: mda-mb-231, 10 µM
[10] = system: A549; assay: Cytotoxicity against human A549 cells up to 50 uM after 48 hrs by MTT assay; format: functional, cell-based
[11] = system: MDA-MB-231; assay: Cytotoxicity against human MDA-MB-231 cells up to 50 uM after 48 hrs by MTT assay; format: functional, cell-based
[12] = system: HeLa; assay: Cytotoxicity against human HeLa cells up to 50 uM after 48 hrs by MTT assay; format: functional, cell-based

Compound: CO[C@@H]1O[C@H](COc2ccc(OC3CCCCC3)cc2)[C@@H](O)[C@H](O)[C@H]1Oc1ccc(C(C)C)cc1
- EC50 [1]: 35 µM
- EC50 [2]: 32 µM
- EC50 [3]: 26 µM

Compound: CO[C@H]1O[C@H](COc2ccc(-c3ccccc3)cc2)[C@@H](O)[C@H](O)[C@H]1Oc1ccc(C(C)C)cc1
- EC50 [1]: 31 µM
- EC50 [2]: 32 µM
- EC50 [3]: 19 µM

Compound: CO[C@H]1O[C@H](COc2ccc3c(c2)CCCC3)[C@@H](O)[C@H](O)[C@H]1Oc1ccc(OC2CCCCC2)cc1
- inhibition at 20 µM [4]: 24%
- inhibition at 20 µM [5]: 16%
- inhibition at 20 µM [6]: 45%
- EC50 [1]: 20 µM
- EC50 [7]: 26 µM
- EC50 [8]: 17 µM

Compound: CO[C@@H]1O[C@H](COc2ccccc2)[C@@H](O)[C@H](O)[C@H]1Oc1ccc2c(c1)-c1ccccc1S2(=O)=O
- inhibition at 20 µM [4]: -16%
- inhibition at 20 µM [5]: 0%
- inhibition at 20 µM [6]: 7%

Compound: CO[C@@H]1O[C@H](COc2ccc3c(c2)CCCC3)[C@@H](O)[C@H](O)[C@H]1Oc1ccc2c(c1)-c1ccccc1S2(=O)=O
- inhibition at 20 µM [4]: 14%
- inhibition at 20 µM [5]: -4%
- inhibition at 20 µM [6]: 7%

- Drug uptake [9]: Not Active
Compound: CO[C@H]1O[C@H](COc2ccc(C3CCCCC3)cc2)[C@@H](O)[C@H](O)[C@H]1Oc1ccc(OC2CCCCC2)cc1
- EC50 [1]: 14 µM
- EC50 [2]: 12 µM
- EC50 [3]: 10 µM

Compound: COc1ccc(OC[C@H]2O[C@H](OC)[C@H](Oc3ccc(OC4CCCCC4)cc3)[C@@H](O)[C@@H]2O)cc1OC
- EC50 [10]: Not Active
- EC50 [11]: Not Active
- EC50 [12]: Not Active

Compound: CO[C@H]1O[C@H](COc2ccc(C3CCCCC3)cc2)[C@@H](O)[C@H](O)[C@H]1Oc1cccc2c1CCCC2
- EC50 [1]: 37 µM
- EC50 [2]: 28 µM
- EC50 [3]: 25 µM

Compound: CO[C@@H]1O[C@H](COc2ccc(-c3ccccc3)cc2)[C@@H](O)[C@H](O)[C@H]1Oc1ccc(OC2CCCCC2)cc1
- inhibition at 20 µM [4]: 64%
- inhibition at 20 µM [5]: 30%
- inhibition at 20 µM [6]: 51%
- EC50 [1]: 36 µM
- EC50 [7]: 26 µM
- EC50 [8]: 18 µM

Compound: CO[C@H]1O[C@H](COc2ccc(-c3ccccc3)cc2)[C@@H](O)[C@H](O)[C@H]1Oc1cccc(C(C)C)c1
- EC50 [1]: 30 µM
- EC50 [2]: 32 µM
- EC50 [3]: 35 µM

Compound: CO[C@H]1O[C@H](COc2ccc(C3CCCCC3)cc2)[C@@H](O)[C@H](O)[C@H]1Oc1ccc2c(c1)CCCC2
- EC50 [1]: 25 µM
- EC50 [2]: 17 µM
- EC50 [3]: 29 µM

Compound: CO[C@H]1O[C@H](COc2ccc(-c3ccccc3)cc2)[C@@H](O)[C@H](O)[C@H]1Oc1ccccc1
- EC50 [10]: Not Active
- EC50 [2]: 36 µM
- EC50 [3]: 33 µM

Compound: CO[C@H]1O[C@H](COc2ccc(OC3CCCCC3)cc2)[C@@H](O)[C@H](O)[C@H]1Oc1ccc(OC2CCCCC2)cc1
- EC50 [1]: 20 µM
- EC50 [2]: 18 µM
- EC50 [3]: 14 µM

Compound: CO[C@@H]1O[C@H](COc2ccc(-c3ccccc3)cc2)[C@@H](O)[C@H](O)[C@H]1Oc1cccc(C(C)C)c1
- EC50 [1]: 35 µM
- EC50 [2]: 35 µM
- EC50 [3]: 32 µM

Compound: COc1ccc(OC[C@H]2O[C@@H](OC)[C@H](Oc3ccc(OC4CCCCC4)cc3)[C@@H](O)[C@@H]2O)cc1OC
- EC50 [10]: Not Active
- EC50 [11]: Not Active
- EC50 [12]: Not Active

Compound: CO[C@@H]1O[C@H](COc2ccc(OC3CCCCC3)cc2)[C@@H](O)[C@H](O)[C@H]1Oc1ccc(OC2CCCCC2)cc1
- EC50 [1]: 26 µM
- EC50 [2]: 25 µM
- EC50 [3]: 14 µM

Compound: C=CCO[C@@H]1[C@@H](Oc2ccc(OC3CCCCC3)cc2)[C@@H](OC)O[C@H](COc2ccc(C3CCCCC3)cc2)[C@H]1OCC=C
- EC50 [10]: Not Active
- EC50 [11]: Not Active
- EC50 [12]: Not Active

Compound: CO[C@H]1O[C@H](COc2ccc(-c3ccccc3)cc2)[C@@H](O)[C@H](O)[C@H]1Oc1ccccc1C(C)C
- EC50 [1]: 34 µM
- EC50 [2]: 33 µM
- EC50 [3]: 29 µM

Compound: CO[C@H]1O[C@H](COc2ccc3c(c2)CCCC3)[C@@H](O)[C@H](O)[C@H]1Oc1ccc2c(c1)-c1ccccc1S2(=O)=O
- inhibition at 20 µM [4]: 30%
- inhibition at 20 µM [5]: 17%
- inhibition at 20 µM [6]: 2%

Compound: CO[C@H]1O[C@H](COc2ccc(-c3ccccc3)cc2)[C@@H](O)[C@H](O)[C@H]1Oc1ccc2c(c1)-c1ccccc1S2(=O)=O
- inhibition at 20 µM [4]: 29%
- inhibition at 20 µM [5]: 12%
- inhibition at 20 µM [6]: 15%

Compound: CO[C@H]1O[C@H](COc2ccccc2)[C@@H](O)[C@H](O)[C@H]1Oc1ccc(OC2CCCCC2)cc1
- inhibition at 20 µM [4]: -11%
- inhibition at 20 µM [5]: -8%
- inhibition at 20 µM [6]: -9%

Compound: CO[C@@H]1O[C@H](COc2ccccc2C(C)C)[C@@H](O)[C@H](O)[C@H]1Oc1ccc(OC2CCCCC2)cc1
- EC50 [1]: 44 µM
- EC50 [2]: 41 µM
- EC50 [3]: 42 µM

Compound: CO[C@H]1O[C@H](COc2cccc(C(C)C)c2)[C@@H](O)[C@H](O)[C@H]1Oc1ccc(OC2CCCCC2)cc1
- EC50 [1]: 38 µM
- EC50 [2]: 30 µM
- EC50 [3]: 28 µM

Compound: COc1cc(OC)cc(OC[C@H]2O[C@H](OC)[C@H](Oc3ccc(OC4CCCCC4)cc3)[C@@H](O)[C@@H]2O)c1
- EC50 [10]: Not Active
- EC50 [11]: Not Active
- EC50 [12]: Not Active

Compound: CO[C@@H]1O[C@H](COc2cccc(C(C)C)c2)[C@@H](O)[C@H](O)[C@H]1Oc1ccc(OC2CCCCC2)cc1
- EC50 [1]: 40 µM
- EC50 [2]: 41 µM
- EC50 [3]: 39 µM

Compound: CO[C@H]1O[C@H](COc2ccc(C3CCCCC3)cc2)[C@@H](OCc2ccccc2)[C@H](OCc2ccccc2)[C@H]1Oc1ccc(OC2CCCCC2)cc1
- EC50 [10]: Not Active
- EC50 [11]: Not Active
- EC50 [12]: Not Active

Compound: CO[C@H]1O[C@H](COc2cccc3c2CCCC3)[C@@H](O)[C@H](O)[C@H]1Oc1ccc2c(c1)-c1ccccc1S2(=O)=O
- inhibition at 20 µM [4]: -8%
- inhibition at 20 µM [5]: -5%
- inhibition at 20 µM [6]: 4%

Compound: CO[C@H]1O[C@H](COc2ccc(OC3CCCCC3)cc2)[C@@H](O)[C@H](O)[C@H]1Oc1ccc(C(C)C)cc1
- EC50 [1]: 25 µM
- EC50 [2]: 27 µM
- EC50 [3]: 18 µM

Compound: CO[C@H]1O[C@H](COc2ccc3c(c2)CCCC3)[C@@H](O)[C@H](O)[C@H]1Oc1cccc(C(C)C)c1
- EC50 [10]: Not Active
- EC50 [2]: 40 µM
- EC50 [3]: 33 µM

Compound: CO[C@@H]1O[C@H](COc2ccc3c(c2)CCCC3)[C@@H](O)[C@H](O)[C@H]1Oc1cccc(C(C)C)c1
- EC50 [10]: Not Active
- EC50 [11]: Not Active
- EC50 [12]: Not Active

Compound: CO[C@H]1O[C@H](COc2ccc(C3CCCCC3)cc2)[C@@H](OC)[C@H](OC)[C@H]1Oc1ccc(OC2CCCCC2)cc1
- EC50 [10]: Not Active
- EC50 [11]: Not Active
- EC50 [12]: Not Active

Compound: CO[C@H]1O[C@H](COc2ccccc2C(C)C)[C@@H](O)[C@H](O)[C@H]1Oc1ccc(OC2CCCCC2)cc1
- EC50 [1]: 36 µM
- EC50 [2]: 33 µM
- EC50 [3]: 47 µM

Compound: CO[C@H]1O[C@H](COc2ccccc2)[C@@H](O)[C@H](O)[C@H]1Oc1ccc2c(c1)-c1ccccc1S2(=O)=O
- inhibition at 20 µM [4]: 2%
- inhibition at 20 µM [5]: 4%
- inhibition at 20 µM [6]: 7%

Compound: CO[C@@H]1O[C@H](COc2ccccc2)[C@@H](O)[C@H](O)[C@H]1Oc1ccc(OC2CCCCC2)cc1
- inhibition at 20 µM [4]: -9%
- inhibition at 20 µM [5]: 14%
- inhibition at 20 µM [6]: -5%

Compound: CO[C@H]1O[C@H](COc2cccc3c2CCCC3)[C@@H](O)[C@H](O)[C@H]1Oc1ccc(OC2CCCCC2)cc1
- inhibition at 20 µM [4]: -8%
- inhibition at 20 µM [5]: -1%
- inhibition at 20 µM [6]: 3%

Compound: CO[C@@H]1O[C@H](COc2ccc3c(c2)CCCC3)[C@@H](O)[C@H](O)[C@H]1Oc1ccc(OC2CCCCC2)cc1
- inhibition at 20 µM [4]: 0%
- inhibition at 20 µM [5]: 1%
- inhibition at 20 µM [6]: 14%
